Data from ChEMBL document CHEMBL1135491, “Novel 2-oxoamide inhibitors of human group IVA phospholipase A(2)” (J Med Chem, 2002).
The source made the active and inactive calls. The rule behind the calls is not given here.

How the values were obtained:
[1] = target: T1, Cytosolic phospholipase A2 (Homo sapiens) (UniProt P47712); assay: Inhibitory activity against human Group IVA Phospholipase A2 (GIVA PLA2)
T1 sequence (whole entry): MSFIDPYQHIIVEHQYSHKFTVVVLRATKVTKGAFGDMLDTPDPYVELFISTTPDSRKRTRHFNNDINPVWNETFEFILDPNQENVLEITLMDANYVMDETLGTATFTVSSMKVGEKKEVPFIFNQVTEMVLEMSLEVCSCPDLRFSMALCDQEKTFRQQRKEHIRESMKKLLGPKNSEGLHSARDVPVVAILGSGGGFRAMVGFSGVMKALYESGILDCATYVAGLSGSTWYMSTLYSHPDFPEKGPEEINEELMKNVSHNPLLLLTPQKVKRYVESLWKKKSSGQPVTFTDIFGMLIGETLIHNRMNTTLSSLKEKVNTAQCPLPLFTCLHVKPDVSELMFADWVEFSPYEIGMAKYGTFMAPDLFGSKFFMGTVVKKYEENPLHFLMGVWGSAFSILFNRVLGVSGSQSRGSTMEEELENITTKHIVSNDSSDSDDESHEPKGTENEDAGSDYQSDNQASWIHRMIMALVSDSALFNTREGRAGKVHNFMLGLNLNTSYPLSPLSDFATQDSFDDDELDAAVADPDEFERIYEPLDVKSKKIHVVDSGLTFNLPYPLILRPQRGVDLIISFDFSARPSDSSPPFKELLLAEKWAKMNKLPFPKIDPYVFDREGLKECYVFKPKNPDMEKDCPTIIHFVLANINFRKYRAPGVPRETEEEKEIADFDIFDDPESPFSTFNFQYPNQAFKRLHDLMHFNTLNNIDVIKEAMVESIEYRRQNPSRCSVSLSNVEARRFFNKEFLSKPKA

[2] = target: T1, Cytosolic phospholipase A2 (Homo sapiens); assay: Inhibitory activity against human Group IVA Phospholipase A2 (GIVA PLA2); Inactive
[3] = target: T1, Cytosolic phospholipase A2 (Homo sapiens); assay: Inhibitory activity against human Group IVA Phospholipase A2 (GIVA PLA2), at 0.02 mole fraction

Row | Compound | XI50 [1] | IA [2] | further results
1 | CCCCCCCCCCC(=O)C(=O)N[C@@H](CCCC)CCC(=O)O | 0.009 |  | 
2 | CCCCCCCC/C=C\CCCCCCCCNC(=O)C(=O)CCCCCCCCCCCCCC |  | inactive | 
3 | CCCCCCCCCCCCCCC(=O)C(=O)NCCCCCC |  |  | inhibition [3]: 22%
4 | CCCCCCCCCCC(=O)C(=O)N[C@H](CCCC)CCC(=O)O | 0.068 |  | 
5 | CCCCCCC(=O)C(=O)NCCCC(=O)O |  | inactive | 
6 | CCCCCCCCCCCCCCC(=O)C(=O)NCCCC(=O)O | 0.017 |  | 
7 | CCCCCCCC/C=C\CCCCCCCCNC(=O)C(=O)CCCCCC |  | inactive | 
8 | CCCCCCCCCCCCCC(=O)C(N)=O |  | inactive | 
